Data as given in PubChem BioAssay (NCI).
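The compound was tested at five concentrations on cells cultured in 96-well plates, with a 48-hour exposure period. At the GI50, growth is halved. At the TGI there is no net growth.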

Columns and labels:
Assay in all cases: NCI tumour cell line growth inhibition, 48 h
[1] = tested on: 786-0 renal
[2] = tested on: DU-145 prostate
[3] = tested on: T-47D breast
[4] = tested on: HOP-92 NSCLC
[5] = tested on: NCI/ADR-RES ovarian
[6] = tested on: DMS 114 small cell lung
[7] = tested on: SNB-78 CNS
[8] = tested on: DMS 273 small cell lung
[9] = tested on: KM20L2 colon
[10] = tested on: LXFL 529 NSCLC
[11] = tested on: XF 498 CNS
[12] = tested on: DLD-1 colon
[13] = tested on: SN12K1 renal
[14] = tested on: P388/ADR leukemia
[15] = tested on: HOP-18 NSCLC
[16] = tested on: M19-MEL melanoma
[17] = tested on: P388 leukemia

`O=C(O)CC1(CC(=O)O)Nc2ccccc2SC1=O` gave a TGI [1] of over 100 µM, a TGI [2] of over 100 µM and a TGI [3] of over 100 µM. For the same compound, the TGI [4] was over 100 µM and the TGI [5] was over 100 µM.

`CC(CCC(=O)O)C1CCC2C3C(O)CC4CC(O)CCC4(C)C3CC(O)C12C` (stereo unspecified) showed a TGI [1] of over 100 µM, a TGI [2] of over 100 µM and a TGI [3] of over 100 µM. The TGI [4] was over 100 µM and the TGI [5] was over 100 µM.

For `C[C@]12CCc3sc(Nc4ccc(O)cc4)nc3C1=CC[C@@H]1[C@@H]2CC[C@]2(C)C(=O)CC[C@@H]12`, the GI50 [3] was 1.95 µM, the TGI [3] was 5.03 µM and the GI50 [4] was 2.39 µM. For the same compound, the TGI [4] was 5.65 µM, the GI50 [5] was 3.27 µM and the TGI [5] was over 100 µM.

With `CN1CCN(c2cc(-c3cc4ccccc4o3)oc(=O)c2C#N)CC1` the TGI [6] was over 100 µM, the TGI [7] was over 100 µM and the TGI [8] was over 100 µM. The TGI [9] was over 100 µM, the TGI [10] was over 100 µM and the TGI [11] was over 100 µM. The TGI [12] was over 100 µM.

With `O=C(NN1C(=O)CSC1c1ccc(C(F)(F)F)cc1)c1ccncc1` (stereo unspecified) the TGI [6] was over 100 µM, the TGI [13] was over 100 µM and the TGI [14] was over 100 µM. It also gave a TGI [7] of over 31.6 µM, a TGI [8] of over 100 µM and a TGI [15] of over 100 µM. It also gave a TGI [9] of over 100 µM, a TGI [16] of over 100 µM and a TGI [4] of over 100 µM. The TGI [11] was over 100 µM, the TGI [5] was over 100 µM and the TGI [12] was over 100 µM. The TGI [17] was over 100 µM.

`CCSc1nc(=[N+]2CCCC2)ss1` gave a TGI [6] of 55.5 µM, a TGI [1] of over 87 µM and a TGI [2] of over 100 µM. For the same compound, the TGI [7] was over 100 µM, the TGI [8] was over 100 µM and the TGI [15] was over 100 µM. For the same compound, the TGI [9] was over 100 µM, the TGI [16] was 27.3 µM and the TGI [4] was over 100 µM. It also gave a TGI [10] of over 100 µM, a TGI [11] of over 77.9 µM and a TGI [5] of over 100 µM. It also gave a TGI [12] of over 100 µM.

Work on `COc1ccc(-c2c3c(nc4nc(SC)nc(SC)c24)CCCC3)cc1OC` yielded a TGI [2] of over 100 µM, a TGI [3] of over 100 µM and a TGI [4] of over 100 µM.

In the case of `CCc1nnc(-c2nsc3ccccc23)s1`, the TGI [6] is reported as over 100 µM, the TGI [7] is reported as over 100 µM and the TGI [8] is reported as over 100 µM. The TGI [15] was over 100 µM, the TGI [9] was over 100 µM and the TGI [4] was over 100 µM. It also gave a TGI [10] of over 100 µM.

In the case of `Cc1ccc(Nc2nc(NS(=O)(=O)c3cc(C(=O)Nc4ccc(Cl)cc4)c(Cl)cc3S)n[nH]2)cc1`, the TGI [2] is reported as over 100 µM, the TGI [3] is reported as over 100 µM and the TGI [5] is reported as over 100 µM.

Compound `O=C1OCC/C1=C/c1ccc(N=Nc2c(O)ccc3ccccc23)cc1` has a TGI [1] of 36.6 µM, a TGI [2] of 36.6 µM and a TGI [3] of over 100 µM. It also gave a TGI [4] of 47.3 µM and a TGI [5] of 41.7 µM.

For `COc1cc2c(cc1OC)C(C)N(C)c1c-2c(OC(C)=O)cc2cc(OC)c(OC)cc12` (stereo unspecified), the TGI [1] was 62 µM, the TGI [2] was 40.8 µM and the TGI [3] was 24.1 µM. For the same compound, the TGI [5] was 33.2 µM.

Work on `CCOP(=O)(CN=C(c1ccccc1)c1ccccc1)OCC` yielded a TGI [2] of over 100 µM, a TGI [3] of over 100 µM and a TGI [4] of over 100 µM. It also gave a TGI [5] of over 100 µM.

For `NC(=S)N/N=C1\c2ccccc2CCC1CCC1(O)CCc2ccccc2C1=O` (stereo unspecified), the TGI [2] was over 100 µM, the TGI [3] was 28.9 µM and the TGI [5] was 79.1 µM.

Compound `CC1OC1C(=O)C1(O)C(C)C(O)C23OC2(C(O)c2c(O)cccc2C3=O)C1O` (stereo unspecified) has a TGI [6] of 0.191 µM, a TGI [13] of 0.889 µM and a TGI [14] of 0.425 µM. The TGI [7] was 3.46 µM, the TGI [8] was 0.551 µM and the TGI [15] was 0.489 µM. For the same compound, the TGI [9] was 1.14 µM, the TGI [16] was 0.526 µM and the TGI [4] was 0.0971 µM. It also gave a TGI [11] of 0.961 µM, a TGI [5] of 0.732 µM and a TGI [12] of 1.7 µM. For the same compound, the TGI [17] was 0.345 µM.
